Data taken from patent publication US20230348369A1 (Cytokinetics, Inc., priority 2020, published 2023).

Experiments:
[1] = molecular target: human NAMPT (Homo sapiens, UniProt P43490); test: Human recombinant enzyme assay (NMN fluorescence biochemical assay, activation of NAMPT); settings: Table A, human recombinant NAMPT, NMN formation, 60 min; for EC50: read-out: EC50 Human
Method in brief: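 NMN production is detected fluorometrically (Ex 355/Em 460 nm) 40 min after acetophenone, KOH and formic acid derivatization. Reactions ran 60 min at ambient temperature: 6 nM human NAMPT, nicotinamide 150 μM, PRPP 20 μM, ATP 2.5 mM, buffered at pH 7.2 with 50 mM HEPES plus DTT, CHAPS, NaCl and 100 mM MgCl2.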

[2] = molecular target: T1, endogenous NAMPT (Homo sapiens, UniProt P43490); test: Cellular NAD+ modulation assay in neuroblastoma SH-SY5Y cells; format: cell-based; settings: Table B, SH-SY5Y cells, cellular NAD levels, doxorubicin, 40 hours; for EC50: read-out: EC50
T1 construct: stimulate the endogenous NAMPT in a native cellular environment; endogenous in cells; host or cells: SH-SY5Y neuroblastoma cells
T1 sequence (P43490 whole entry): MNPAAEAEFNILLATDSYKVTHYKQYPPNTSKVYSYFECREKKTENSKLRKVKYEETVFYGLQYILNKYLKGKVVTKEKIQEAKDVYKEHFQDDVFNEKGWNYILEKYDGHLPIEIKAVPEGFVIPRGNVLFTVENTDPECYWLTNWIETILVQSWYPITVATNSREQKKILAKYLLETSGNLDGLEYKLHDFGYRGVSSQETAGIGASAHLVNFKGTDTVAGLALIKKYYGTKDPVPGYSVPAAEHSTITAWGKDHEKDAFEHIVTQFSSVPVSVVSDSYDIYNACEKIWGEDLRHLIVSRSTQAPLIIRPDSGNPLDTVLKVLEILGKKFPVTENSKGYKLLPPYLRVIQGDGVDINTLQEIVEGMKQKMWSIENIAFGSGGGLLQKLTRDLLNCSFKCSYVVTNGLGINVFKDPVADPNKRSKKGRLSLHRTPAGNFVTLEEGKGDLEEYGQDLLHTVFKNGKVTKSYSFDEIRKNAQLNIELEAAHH
Method: The compounds described herein were also assayed for their ability to stimulate the endogenous NAMPT in a native cellular environment in the cellular NAD+ modulation assay, which measures the ability of the compound to modulate cellular NAD levels. Increased levels of NAD are expected by compounds that permeate the cells and activate the catalytic activity of the endogenous NAMPT.
Neuroblastoma SH-SY5Y cells were grown in 1:1 mixture of Eagle's Minimum Essential Medium and F12 Medium, along with 10% fetal bovine serum, in a humidified incubator with an atmosphere of 95% air and 5% CO2 at 37° C. The assays were initiated by plating 20 μL of SH-SY5Y cells in culture medium with 0.1% fetal bovine serum, at a density of 5000 cells per well to a 384-well Corning™ BioCoat™ Poly-D-Lysine Multiwell Plates. The plates were incubated in the 37° C. incubators for a period of 5 hours. Compounds in DMSO were added to the plates in a volume of 120 nL using the Labcyte Echo Liquid Handlers. […] The plates are then incubated for 40 hours. 30 μL of a readout-solution containing 0.2 U/mL Diaphorase enzyme, 40 uM resazurin, 10 uM FMN, 0.8 U/mL Alcohol dehydrogenase, 3% ethanol, 0.4 mg/mL bovine serum albumin, 0.2% Triton X-100 in 100 mM Tris-HCl, 30 mM EDTA, pH 8.4. The plates were read for fluorescence (Excitation/Emission=540 nm/590 nm) using an EnVision plate reader after 60 mins of incubation at ambient temperature.

human NAMPT, sequence (P43490 whole entry): as above

Compound	AC1.4 Human [1]	EC50 [1]	AC0.3 [2]	EC50 [2]
COc1ccc(CNC(=O)NCCCCC2CCN(C(=O)c3ccccc3C)CC2)cc1 [Compound 322, 1-(4-methoxybenzyl)-3-(4-(1-(2-methylbenzoyl)piperidin-4-yl)butyl)urea]	0.1 µM	2.3 µM	0.2 µM	0.3 µM
O=C(NCc1ccc(Cl)cc1)NC1CC2(CC(Cc3ccncc3)C2)C1 (stereo not shown) [Compound 329, 1-(4-chlorobenzyl)-3-(6-(pyridin-4-ylmethyl)spiro[3.3]heptan-2-yl)urea]	62.5 µM	> 62.5 µM	0.1 µM	0.1 µM
COc1ccc(CNC(=O)NC2CC3(CC(Cc4ccncc4)C3)C2)cc1 (stereo not shown) [Compound 330, 1-(4-methoxybenzyl)-3-(6-(pyridin-4-ylmethyl)spiro[3.3]heptan-2-yl)urea]	0.1 µM	3.9 µM	0.5 µM	8.1 µM
Cc1ncccc1CC1CC2(C1)CC(NC(=O)NCc1ccc(Cl)cc1)C2 (stereo not shown) [Compound 346, 1-(4-chlorobenzyl)-3-(6-((2-methylpyridin-3-yl)methyl)spiro[3.3]heptan-2-yl)urea]	62.5 µM	> 62.5 µM	0.1 µM	0.1 µM
